Earlier results in patent US20250019557A1, “INK SET AND INKJET RECORDING APPARATUS” (KYOCERA Document Solutions Inc., priority 2023, published 2025).

details: octanol/water partition coefficient; literature value, or calculated where none exists

Structure (SMILES)	LogP
CC(O)CO (stereo not shown) [1,2-Propanediol]	−0.92
OCCCO [1,3-Propanediol]	−1.04
CC(CCO)CCO [3-Methyl-1,5-pentanediol]	0.35
CCCCOCCOCCOCCO [Triethylene glycol monobutyl ether]	0.44
